Results from US8163778B2 (Hoffmann-LA Roche Inc., priority 2007, dated 2012).

Target: T1, human liver FBPase (Homo sapiens, UniProt P09467)
T1 construct: made in house; host or cells: E. coli
T1 sequence (P09467 2-338 limits assumed): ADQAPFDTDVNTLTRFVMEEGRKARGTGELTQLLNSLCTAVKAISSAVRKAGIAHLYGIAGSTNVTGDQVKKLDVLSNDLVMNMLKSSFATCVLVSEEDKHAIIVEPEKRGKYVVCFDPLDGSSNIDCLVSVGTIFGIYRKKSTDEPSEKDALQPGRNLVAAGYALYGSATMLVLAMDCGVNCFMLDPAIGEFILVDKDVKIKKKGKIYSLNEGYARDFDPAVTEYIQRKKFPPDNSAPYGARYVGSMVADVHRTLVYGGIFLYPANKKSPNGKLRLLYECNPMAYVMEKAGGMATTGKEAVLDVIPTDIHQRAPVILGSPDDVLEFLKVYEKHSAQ
Assay: FBPase assay (malachite green phosphate release)
Type: biochemical
Settings: recombinant human liver FBPase, 50 μM fructose-1,6-bisphosphate
In short: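 Recombinant human liver FBPase (E. coli-expressed, heat-treated, purified) reacted with 50 μM fructose-1,6-bisphosphate in pH 7.2 HEPES, 2 mM MgCl2, 1% DMSO, 50 min at room temperature. Released phosphate quantified with malachite green/ammonium molybdate reagent at 620 nm.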

Row | SMILES | IC50 [nM]
1 | Cc1cc(S(=O)(=O)NC(=O)Nc2cc(C(F)(F)F)cc(CO)n2)sc1CCO [Compound 106, 5-(2-Hydroxyethyl)-N-{[6-(hydroxymethyl)-4-(trifluoromethyl)pyridin-2-yl]carbamoyl}-4-methylthiophene-2-sulfonamide] | 1500
2 | Cc1cccc(S(=O)(=O)NC(=O)Nc2cc(Br)cc(N)n2)c1 [Compound 36, N-[(6-Amino-4-bromopyridin-2-yl)carbamoyl]-3-methylbenzenesulfonamide] | 566
3 | COCCc1sc(S(=O)(=O)NC(=O)Nc2cc(OC)cc(NC(N)=O)n2)cc1C [Compound 24, N-{[6-(Carbamoylamino)-4-methoxypyridin-2-yl]carbamoyl}-5-(2-methoxyethyl)-4-methylthiophene-2-sulfonamide] | 259
4 | COCCc1sc(S(=O)(=O)NC(=O)Nc2cc(C(F)(F)F)cc(-c3ccc(C(F)(F)F)cc3)n2)cc1C [Compound 42, 5-(2-Methoxyethyl)-4-methyl-N-({4-(trifluoromethyl)-6-[4-(trifluoromethyl)phenyl]pyridin-2-yl}carbamoyl)thiophene-2-sulfonamide] | 760
5 | CNC(=O)Nc1cc(OC)cc(NC(=O)NS(=O)(=O)c2cccc(C)c2)n1 [Compound 27, N-({4-Methoxy-6-[(methylcarbamoyl)amino]pyridin-2-yl}carbamoyl)-3-methylbenzenesulfonamide] | 351
6 | COCCc1sc(S(=O)(=O)NC(=O)Nc2cc(Br)cc(N)n2)cc1Cl [Compound 11, N-[(6-Amino-4-bromopyridin-2-yl)carbamoyl]-4-chloro-5-(2-methoxyethyl)thiophene-2-sulfonamide] | 132
